Results as given in patent US20050064470A1, “High throughput screening methods for identifying RNA binding compounds” (priority 2003, published 2005).

Key:
[1] = biological target: bulge-deleted (mut) TAR RNA; assay: Fluorescence polarization anisotropy (FPA) binding to fluorescein-labeled bulge-deleted TAR RNA; design: species or system HIV-1; conditions: for Kd: FPA, 20 mM KCl, fluorescein-tagged bulge-deleted TAR RNA, room temperature
Protocol: (§1) β-Peptide and mutant β-peptide binding affinities to TAR RNA were measured by fluorescence anisotropy method on a PTI (Photon Technology International) fluorescence spectrophotometer. A T-format setup based on two emission channels was used. The intensities of the parallel and perpendicular components simultaneously were obtained in one measurement using two separate detectors. The excitation side is a motorized Glan-Thompson polarizer and emission sides are two film polarizers placed in vertical and horizontal orientation, respectively. The anisotropy can be calculated from equation 1, [formula] • where III and I⊥ are fluorescence intensities observed when the emission polarizer is oriented parallel and perpendicular to the direction of the polarized excitation, respectively.
(§2) The fluorescein-labeled TAR RNA (F-TAR, either wt TAR or bulge-less TAR, see FIG. 1) was excited at 490 nm and two polarized emissions were monitored at 512 nm. The slits were set at 8 nm for both excitation and emission light. The integration time was 20 seconds. All data were measured in a Sub-Micro cuvette (Starna Cell, Inc.) with a starting volume of 160 μL. Each addition of β-peptide/mutant β-peptide was followed by one-minute equilibration before the fluorescence signal was recorded. All experiments were done at room temperature and in a TKT buffer (TKT: 50 mM Tris-HCl, pH=7.4, 20 mM KCl and 0.02% Tween20). The initial concentration of F-TAR was around 25 nM. The stock concentration of β-peptide/mutant β-peptide for titration was 2 μM. The experiment was repeated three times independently. For every single point, five measurements were made and their average anisotropy value was used for calculation of the KD.
(§3) The binding dissociation constant (KD) is determined by fitting the plot of anisotropy of F-TAR versus the concentration of the β-peptide using equation 3, [formula] • where A is the relative fluorescence anisotropy of dye-labeled TAR RNA. The capacity for binding, Cap, is the maximum binding ability of a small molecule. C is the total concentration of β-peptide added. a is a correction factor.

wild-type TAR RNA = assay: Fluorescence polarization anisotropy (FPA) binding to fluorescein-labeled wild-type TAR RNA; design: species or system HIV-1; conditions: for affinity for TAR RNA (in words) / Kd / specificity for wild-type TAR over bulgeless TAR (in words): FPA; for Kd: 20 mM KCl, fluorescein-tagged wild-type TAR RNA, room temperature, read-out: Kd wt TAR; for specificity for wild-type TAR over bulgeless TAR (in words): wild-type vs bulge-deleted TAR; for Binding Specificity (Kd (mutTAR)/Kd (wtTAR)): ratio of Kd for bulge-deleted TAR to Kd for wild-type TAR, in text as fold decrease of affinity
Protocol: as §1, §2, §3

| Substance | Kd [1] | affinity for TAR RNA (in words) (wild-type TAR RNA) | Kd (wild-type TAR RNA) | specificity for wild-type TAR over bulgeless TAR (in words) (wild-type TAR RNA) | Binding Specificity (Kd (mutTAR)/Kd (wtTAR)) (wild-type TAR RNA) | affinity for bulgeless TAR reduced compared to α-peptide 3 ([1]; compared to α-peptide 3) | affinity for wild-type TAR lower than that of α-peptide 3 (wild-type TAR RNA; compared to α-peptide 3) | Binding Specificity (Kd (mutTAR)/Kd (wtTAR)) (wild-type TAR RNA; listed as β-peptide 1) | dissociation constant ratio (Krel) relative to α-peptide 3 (wild-type TAR RNA; value above 1.0 denotes stronger binding of the analogue relative to the native peptide) |
| --- | --- | --- | --- | --- | --- | --- | --- | --- | --- |
| β-peptide in which all arginine side chains have been replaced by lysine side chains (YGKKKKKQKKK; SEQ ID NO:2) [mut β-peptide 2] | 0.033 ± 0.002 µM | high affinity | 0.016 ± 0.002 µM | less specificity | 2 |  |  |  |  |
| N-Tyr-Gly-Arg-Lys-Lys-Arg-Arg-Gln-Arg-Arg-Arg [α-TatR 3, reference compound] | 0.0011 ± 0.0002 µM |  | 0.0018 ± 0.0005 µM | little specificity | 1 |  |  |  |  |
| β-amino acid oligomer (β-peptide) analogue of Tat 47-57 (YGRKKRRQRRR, SEQ ID NO:1) [wt β-peptide 1] | 0.281 ± 0.068 µM | nanomolar affinity | 0.028 ± 0.004 µM | enhanced specificity | 10 | more than two orders of magnitude | roughly 15 fold | about 10 | 0.072 |
